Assay results taken from patent US20220073521A1, “PYRIMIDINE AND FIVE-MEMBERED NITROGEN HETEROCYCLE DERIVATIVE, PREPARATION METHOD THEREFOR, AND MEDICAL USES THEREOF” (Tuojie Biotech (Shanghai) Co., Ltd., priority 2018, published 2022).
Like-named read-outs stand apart in the source and are kept apart here.

How the values were obtained:
[1] = test system: p-ERK in KYSE-520 cells; test: Determination of p-ERK in KYSE-520 cells (HTRF); type: cell-based; conditions: Homo sapiens, KYSE-520, 2 h
Experimental: KYSE-520 cells (Nanjing Cobioer Biosciences CO., Ltd.) in the logarithmic growth phase were inoculated (30,000 cells/well) in 1640 medium containing 10% of FBS, and adhered in a 96-well plate overnight (5% CO2, 37° C.). […] The cell culture was stopped with cell lysate. The level of phosphorylated ERK in KYSE-520 cells was determined by a method based on homogeneous time-resolved fluorescence HTRF (Cisbio, 64ERKPEG). The fluorescence values (Ex337 nm/Em625/665 nm) were read on the compatible HTRF reader (MD SpectraMax).

[2] = test system: KYSE-520 cells; test: KYSE-520 cell proliferation experiment (CellTiter-Glo, 7 days); type: cell-based; conditions: Homo sapiens
Experimental: The treated cell plate was incubated at 37° C., 5% CO2 for 7 days. CellTiter-Glo (Promega, G7573) was used to determine the number of viable cells in each well of the treated plate. 100 μL of the detection reagent was added to each well, and the plate was incubated at room temperature for 10 minutes. Then, the […] in each well was measured with Envision plate reader (PerkinElmer). […] The IC50 value was further calculated as the compound concentration required for 50% proliferation inhibition in the best-fit curve with […].

[3] = molecular target: T1, hERG potassium channel (Homo sapiens, UniProt Q12809); test: hERG current inhibition experiment (manual patch clamp, CHO hERG cells); type: cell-based; conditions: whole-cell patch clamp, tail current
T1 construct: host or cells: CHO hERG cells
T1 sequence (Q12809 whole entry): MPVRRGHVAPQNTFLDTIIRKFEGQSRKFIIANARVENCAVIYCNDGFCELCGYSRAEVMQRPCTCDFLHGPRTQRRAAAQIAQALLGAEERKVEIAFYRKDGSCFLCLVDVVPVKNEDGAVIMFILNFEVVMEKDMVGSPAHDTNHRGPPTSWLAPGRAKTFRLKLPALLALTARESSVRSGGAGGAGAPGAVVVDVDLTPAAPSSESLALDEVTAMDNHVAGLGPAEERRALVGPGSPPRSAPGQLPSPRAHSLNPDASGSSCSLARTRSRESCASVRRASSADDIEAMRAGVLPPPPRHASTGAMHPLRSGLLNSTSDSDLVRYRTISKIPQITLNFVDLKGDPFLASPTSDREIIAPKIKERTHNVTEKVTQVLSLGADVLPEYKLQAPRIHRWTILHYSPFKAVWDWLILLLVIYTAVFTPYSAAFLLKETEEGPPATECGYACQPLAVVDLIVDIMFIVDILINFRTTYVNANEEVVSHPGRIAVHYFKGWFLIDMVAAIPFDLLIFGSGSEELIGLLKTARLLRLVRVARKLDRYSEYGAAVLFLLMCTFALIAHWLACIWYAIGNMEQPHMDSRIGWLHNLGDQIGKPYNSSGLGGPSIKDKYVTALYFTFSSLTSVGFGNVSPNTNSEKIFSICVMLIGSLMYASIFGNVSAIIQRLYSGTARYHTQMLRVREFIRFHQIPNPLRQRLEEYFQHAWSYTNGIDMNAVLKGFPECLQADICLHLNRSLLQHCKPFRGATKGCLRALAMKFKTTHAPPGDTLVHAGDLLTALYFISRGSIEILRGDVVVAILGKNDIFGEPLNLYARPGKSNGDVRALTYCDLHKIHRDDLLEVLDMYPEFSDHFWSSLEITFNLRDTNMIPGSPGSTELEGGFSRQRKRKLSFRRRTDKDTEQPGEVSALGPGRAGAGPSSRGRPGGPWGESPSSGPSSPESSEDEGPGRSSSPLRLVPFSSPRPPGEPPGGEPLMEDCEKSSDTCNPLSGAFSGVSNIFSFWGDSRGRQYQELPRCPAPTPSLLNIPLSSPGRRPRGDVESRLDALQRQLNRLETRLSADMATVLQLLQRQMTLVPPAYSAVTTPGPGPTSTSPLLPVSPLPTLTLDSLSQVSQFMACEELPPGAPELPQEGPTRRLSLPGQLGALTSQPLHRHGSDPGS
Experimental: In this experiment, whole-cell current recording was performed using a manual patch clamp system (HEKA EPC-10 signal amplification and digital conversion system, purchased from HEKA Electronic, Germany). The round glass slide of which surface CHO hERG cells (provided by Sophion Bioscience Inc., Denmark, the cell generation number was P21) were grown on was placed in an electrophysiological recording slot under an inverted microscope. The recording slot was continuously perfused with extracellular fluid (approximately 1 mL per minute). Conventional whole-cell patch clamp current recording technique was used in the experiment. The experiments were performed at normal room temperature (˜25° C.). The cells were clamped at a voltage of −80 mV. Cell patch clamp voltage was depolarized to +20 mV to activate hERG potassium channel, and to −50 mV after 5 seconds to eliminate inactivation and generate tail currents. The tail current peak was used as a value of hERG current. When the hERG potassium current recorded in the above steps became steady under continuous perfusion of the extracellular fluid in the recording slot, the drug to be tested could be added to the perfusion, until the inhibition effect of the drug on hERG current reached a steady state. Generally, the overlapping of most recent three consecutive current recording lines was used as a criterion to determine whether the state was stable. After reaching the steady state, the recording slot was perfused with extracellular fluid until the hERG current returned to the value before the drug adding. The test data was analyzed by HEKA Patchmaster (V2x73.2), Microsoft Excel and the data analysis software provided by Graphpad Prism 5.0.

[4] = molecular target: T2, SHP2 wild-type phosphatase (recombinantly expressed full-length SHP2, aa 1-593) (Homo sapiens, UniProt Q06124); test: In vitro activity on SHP2 wild-type phosphatase (DiFMUP fluorescence); conditions: wild-type full-length SHP2, activated polypeptide IRS1 0.5 nM, DiFMUP 30 μM;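 also: enzyme preincubated at room temperature, then DiFMUP reaction run at room temperature and halted with SDS, potency derived from a logistic curve fit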
T2 sequence (Q06124 1-593): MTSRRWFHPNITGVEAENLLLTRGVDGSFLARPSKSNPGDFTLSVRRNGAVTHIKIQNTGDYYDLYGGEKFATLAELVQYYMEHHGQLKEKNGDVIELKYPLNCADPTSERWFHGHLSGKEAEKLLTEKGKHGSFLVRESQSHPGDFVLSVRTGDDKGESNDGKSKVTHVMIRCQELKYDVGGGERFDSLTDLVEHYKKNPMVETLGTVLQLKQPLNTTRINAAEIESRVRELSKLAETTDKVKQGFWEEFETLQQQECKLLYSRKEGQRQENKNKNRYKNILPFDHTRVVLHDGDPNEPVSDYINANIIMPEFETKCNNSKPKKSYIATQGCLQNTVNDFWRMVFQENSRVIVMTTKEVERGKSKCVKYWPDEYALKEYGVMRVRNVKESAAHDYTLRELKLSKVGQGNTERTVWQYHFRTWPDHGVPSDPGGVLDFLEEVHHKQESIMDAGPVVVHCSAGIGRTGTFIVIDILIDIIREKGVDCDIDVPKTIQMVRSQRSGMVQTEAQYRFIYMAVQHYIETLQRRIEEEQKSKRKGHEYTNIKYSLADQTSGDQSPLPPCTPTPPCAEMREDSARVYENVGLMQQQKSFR
Experimental: 0.2 nM recombinantly expressed full-length SHP2 (aa 1-593), 0.5 nM activated polypeptide IRS1 with double phosphorylation sites (sequence: H2N-LN(pY)IDLDLY(dPEG8)LST(pY)ASINFQK-amide) and a series of concentrations of the test compound (final concentrations were 1 μM, 0.3 μM, 0.1 μM, 0.03 μM, 0.01 μM, 0.003 μM, 0.001 μM, 0.0003 μM, 0.0001 μM, 0.00003 μM) were added to the phosphatase reaction solution (60 mM HEPES, pH 7.5 0.005% Brij-35, 75 mM NaCl, 75 mM KCl, 1 mM EDTA, 5 mM DTT). The reaction solution was shaked (350 rpm) at room temperature for 30 minutes. The reaction substrate DiFMUP with a final concentration of 30 μM was added, and the reaction solution was reacted at room temperature for 30 minutes. The phosphatase reaction was stopped by adding 5 μL of stop solution (60 mM HEPES, pH 7.5, 0.2% SDS). Ex358 nm/Em455 fluorescence value was read on the fluorescence plate reader MD SpectraMax.
The IC50 value of the compound was calculated using the four-parameter logit method. In the following formula, x represents the logarithmic form of the compound concentration, and F(x) represents the effect value (the inhibition rate of cell proliferation under the given concentration condition): F(x)=((A−D)/(1+((x/C)^B)))+D. A, B, C and D are four parameters. Different concentrations correspond to different inhibition rates, based on which an inverse curve was plotted, and the IC50 of the inhibitor was calculated from the curve. The IC50 of the compound was calculated with Primer premier 6.0.

[5] = Pharmacokinetics assay in rats; type: in vivo, SD rats; conditions: rat; for AUC: read-out: Area under curve AUC; for half-life: read-out: Half-life T1/2 (converted)
Experimental: Rats were used as test animals. The drug concentration in plasma at different time points was determined by LC/MS/MS method after intravenous administration or intragastrical administration of the compound of the present invention to rats. The pharmacokinetic behavior of the compound of the present invention was studied and evaluated in rats.
The atropisomer with a RT of 1.495 minutes in Examples 3 and 4, compounds of Example 17, Example 41 and Example 43.
Healthy male SD rats (6-8 weeks old), 3 rats per group.
Intravenous administration: A certain amount of the test compound was weighed, to which 10% by volume of N,N-dimethylacetamide, 33% by volume of triethylene glycol and 57% by volume of water were added to prepare a 1 mg/mL colorless, clear and transparent solution;
Intragastrical administration: A certain amount of the test compound was weighed, to which 0.5% by mass of hypromellose, 0.1% by volume of Tween 80 and 99.4% by volume of water were added to prepare a 1 mg/mL white suspension.
After an overnight fast, the SD rats were intravenously administered the test compound at an administration dose of 1 mg/kg, or intragastrically administered the test compound at an administration dose of 5 mg/kg.
(§1) The rats were intravenously administered the compound of the present invention. 0.2 ml of blood was taken from the jugular vein at 0.083, 0.25, 0.5, 1, 2, 4, 8 and 24 hours after the administration. The samples were placed in tubes containing EDTA-K2, and centrifuged at 4000 rpm and 4° C. for 5 minutes to separate the blood plasma. The plasma samples were stored at −75° C.
as §1, with “Or, the rats” for “The rats”, “were intragastrically” for “were intravenously”, “at” for “at 0.083,”
The content of the test compound in the plasma of rat after intragastrical administration of the test compound at different concentrations was determined: 50 μL of rat plasma at each time after administration was taken, to which 200 μL of a solution (50 ng/mL) of internal standard dexamethasone in acetonitrile was added. The plasma was vortex-mixed for 30 seconds, and centrifuged at 4700 rpm and 4° C. for 15 minutes. The supernatant was taken from the plasma samples, and a three-fold dilution was carried out by adding water. 2.0 μL of the supernatant was used for LC/MS/MS analysis.

Compound | IC50 [1] | IC50 [2] | IC50 [3] | IC50 [4] | AUC ([5]; male, SD, plasma, IV 1 mg/kg) | clearance ([5]; male, SD, plasma, IV 1 mg/kg, read-out: Clearance CL_obs) | half-life ([5]; male, SD, plasma, IV 1 mg/kg) | bioavailability ([5]; male, SD, plasma, PO 5 mg/kg vs IV 1 mg/kg, read-out: Bioavailability F) | AUC ([5]; male, SD, plasma, PO 5 mg/kg) | half-life ([5]; male, SD, plasma, PO 5 mg/kg) | Cmax ([5]; male, SD, plasma, PO 5 mg/kg, read-out: Maximum plasma concentration Cmax) | Apparent distribution volume Vss_obs ([5]; IV 1 mg/kg)
Cc1nc(N2CCC3(CC2)CO[C@@H](C)[C@H]3N)n2cnnc2c1-c1cccc(Cl)c1Cl [Example 9, (3S,4S)-8-(8-(2,3-Dichlorophenyl)-7-methyl-[1,2,4]triazolo[4,3-c]pyrimidin-5-yl)-3-methyl-2-oxa-8-azaspiro[4.5]decan-4-amine] | 285 nM | 785 nM | 1910 nM | 3.2 nM | – | – | – | – | – | – | – | –
C[C@@H]1OCC2(CCN(c3ncc(Sc4cccnc4C(F)(F)F)c4nccn34)CC2)[C@@H]1N [Example 17, (3S,4S)-3-Methyl-8-(8-((2-(trifluoromethyl)pyridin-3-yl)thio)imidazo[1,2-c]pyrimidin-5-yl)-2-oxa-8-azaspiro[4.5]decan-4-amine] | 32.3 nM | 179 nM | 12300 nM | 4.2 nM | 764 ± 196 ng·h/mL | 21.5 ± 5.2 mL/min/kg | 2.83 ± 0.93 h | 80.3 ± 8.5% | 3210 ± 351 ng·h/mL | 3.42 ± 0.37 h | 408 ± 77 ng/mL | 3.8 ± 0.1 L/kg
C[C@@H]1OCC2(CCN(c3nc(N)c(Sc4cccnc4C(F)(F)F)c4nccn34)CC2)[C@@H]1N [Example 24, (3S,4S)-8-(7-Amino-8-((2-(trifluoromethyl)pyridin-3-yl)thio)imidazo[1,2-c]pyrimidin-5-yl)-3-methyl-2-oxa-8-azaspiro[4.5]decan-4-amine] | 11 nM | 75.9 nM | > 30000 nM | 4.4 nM | – | – | – | – | – | – | – | –
N[C@@H]1c2cccnc2CC12CCN(c1ncc(Sc3ccnc(NC4CC4)c3Cl)c3nccn13)CC2 [Example 36, (S)-1′-(8-((3-Chloro-2-(cyclopropylamino)pyridin-4-yl)thio)imidazo[1,2-c]pyrimidin-5-yl)-5,7-dihydrospiro[cyclopenta[b]pyridine-6,4′-piperidin]-5-amine] | 8 nM | 40.5 nM | 3970 nM | 2.6 nM | – | – | – | – | – | – | – | –
Cc1nc(N2CCC3(CC2)Cc2ncccc2[C@H]3N)n2ccnc2c1Sc1ccnc(N)c1Cl [Example 42, (S)-1′-(8-((2-Amino-3-chloropyridin-4-yl)thio)-7-methylimidazo[1,2-c]pyrimidin-5-yl)-5,7-dihydrospiro[cyclopenta[b]pyridine-6,4′-piperidin]-5-amine] | 20.2 nM | 65.1 nM | > 30000 nM | 1.9 nM | – | – | – | – | – | – | – | –
